Results published in PubChem BioAssay (NCI).
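GI50 marks 50% less growth. TGI: total growth inhibition.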

How the values were obtained:
Experiment in all cases: NCI tumour cell line growth inhibition, 384-well format
IGROV1 ovarian = test system: IGROV1 ovarian
SN12C renal = test system: SN12C renal
RXF 393 renal = test system: RXF 393 renal
786-0 renal = test system: 786-0 renal
CCRF-CEM leukemia = test system: CCRF-CEM leukemia
SK-MEL-28 melanoma = test system: SK-MEL-28 melanoma
OVCAR-5 ovarian = test system: OVCAR-5 ovarian
MALME-3M melanoma = test system: MALME-3M melanoma
A549 NSCLC = test system: A549 NSCLC
SK-OV-3 ovarian = test system: SK-OV-3 ovarian
TK-10 renal = test system: TK-10 renal
U251 glioblastoma = test system: U251 glioblastoma
OVCAR-4 ovarian = test system: OVCAR-4 ovarian
M14 melanoma = test system: M14 melanoma
SF-295 CNS = test system: SF-295 CNS
NCI-H226 lung = test system: NCI-H226 lung
MOLT-4 leukemia = test system: MOLT-4 leukemia
SF-539 CNS = test system: SF-539 CNS
NCI-H23 lung = test system: NCI-H23 lung
T-47D breast = test system: T-47D breast
UACC-62 melanoma = test system: UACC-62 melanoma
RPMI-8226 leukemia = test system: RPMI-8226 leukemia
EKVX NSCLC = test system: EKVX NSCLC
SNB-19 CNS = test system: SNB-19 CNS
ACHN renal = test system: ACHN renal
HOP-62 NSCLC = test system: HOP-62 NSCLC
NCI-H522 lung = test system: NCI-H522 lung
CAKI-1 renal = test system: CAKI-1 renal
OVCAR-3 ovarian = test system: OVCAR-3 ovarian
HCT-116 colon = test system: HCT-116 colon
UACC-257 melanoma = test system: UACC-257 melanoma
LOX IMVI melanoma = test system: LOX IMVI melanoma
MDA-MB-231 breast = test system: MDA-MB-231 breast
SK-MEL-2 melanoma = test system: SK-MEL-2 melanoma
A498 renal = test system: A498 renal
SF-268 CNS = test system: SF-268 CNS
BT-549 breast = test system: BT-549 breast
NCI-H322M lung = test system: NCI-H322M lung
PC-3 prostate = test system: PC-3 prostate
SNB-75 CNS = test system: SNB-75 CNS
SW-620 colon = test system: SW-620 colon
KM12 colon = test system: KM12 colon
NCI/ADR-RES ovarian = test system: NCI/ADR-RES ovarian
MDA-MB-435 melanoma = test system: MDA-MB-435 melanoma
HCT-15 colon = test system: HCT-15 colon
HS 578T breast = test system: HS 578T breast
OVCAR-8 ovarian = test system: OVCAR-8 ovarian
DU-145 prostate = test system: DU-145 prostate
K-562 leukemia = test system: K-562 leukemia
UO-31 renal = test system: UO-31 renal
MDA-MB-468 breast = test system: MDA-MB-468 breast
HOP-92 NSCLC = test system: HOP-92 NSCLC
HT29 colon = test system: HT29 colon
MCF7 breast = test system: MCF7 breast
HL-60(TB) leukemia = test system: HL-60(TB) leukemia

N[C@@H]1CCCC[C@H]1N.O=C([O-])C(=O)[O-].[Pt+4]
GI50 (IGROV1 ovarian): 16.7 µM | TGI (IGROV1 ovarian): > 100 µM | GI50 (SN12C renal): 7.27 µM | TGI (SN12C renal): > 100 µM | GI50 (RXF 393 renal): 10.6 µM | TGI (RXF 393 renal): 23.7 µM | GI50 ([…]-0 renal): 3.2 µM | TGI (786-0 renal): 98.7 µM | GI50 (CCRF-CEM leukemia): 2.13 µM | TGI (CCRF-CEM leukemia): 4.74 µM | GI50 (SK-MEL-28 melanoma): 14.6 µM | TGI (SK-MEL-28 melanoma): 63.9 µM | GI50 (OVCAR-5 ovarian): 8.06 µM | TGI (OVCAR-5 ovarian): 47.8 µM | GI50 (MALME-3M melanoma): 10.7 µM | TGI (MALME-3M melanoma): 22.8 µM | GI50 (A549 NSCLC): 2.61 µM | TGI (A549 NSCLC): > 100 µM | GI50 (SK-OV-3 ovarian): 31 µM | TGI (SK-OV-3 ovarian): > 100 µM | GI50 (TK-10 renal): 11.2 µM | TGI (TK-10 renal): > 100 µM | GI50 (U251 glioblastoma): 8.83 µM | TGI (U251 glioblastoma): > 100 µM | GI50 (OVCAR-4 ovarian): 19.8 µM | TGI (OVCAR-4 ovarian): > 100 µM | GI50 (M14 melanoma): 8.78 µM | TGI (M14 melanoma): 52.6 µM | GI50 (SF-295 CNS): 27.4 µM | TGI (SF-295 CNS): > 100 µM | GI50 (NCI-H226 lung): 12.5 µM | TGI (NCI-H226 lung): 48.4 µM | GI50 (MOLT-4 leukemia): 0.276 µM | TGI (MOLT-4 leukemia): 0.7 µM | GI50 (SF-539 CNS): 6.07 µM | TGI (SF-539 CNS): 35.5 µM | GI50 (NCI-H23 lung): 8.68 µM | TGI (NCI-H23 lung): 28.8 µM | GI50 (T-47D breast): 12.7 µM | TGI (T-47D breast): > 100 µM | GI50 (UACC-62 melanoma): 3.15 µM | TGI (UACC-62 melanoma): 25.1 µM | GI50 (RPMI-8226 leukemia): 0.403 µM | TGI (RPMI-8226 leukemia): 1.85 µM | GI50 (EKVX NSCLC): > 100 µM | TGI (EKVX NSCLC): > 100 µM | GI50 (SNB-19 CNS): 58.3 µM | TGI (SNB-19 CNS): > 100 µM | GI50 (ACHN renal): 2.88 µM | TGI (ACHN renal): 20.4 µM | GI50 (HOP-62 NSCLC): 7.92 µM | TGI (HOP-62 NSCLC): > 100 µM | GI50 (NCI-H522 lung): 10.1 µM | TGI (NCI-H522 lung): 21.7 µM | GI50 (CAKI-1 renal): 1.03 µM | TGI (CAKI-1 renal): 31.3 µM | GI50 (OVCAR-3 ovarian): 8.13 µM | TGI (OVCAR-3 ovarian): 30.6 µM | GI50 (HCT-116 colon): 3.36 µM | TGI (HCT-116 colon): > 100 µM | GI50 (UACC-257 melanoma): 24.1 µM | TGI (UACC-257 melanoma): > 100 µM | GI50 (LOX IMVI melanoma): 12.2 µM | TGI (LOX IMVI melanoma): > 100 µM | GI50 (MDA-MB-231 breast): 25.8 µM | TGI (MDA-MB-231 breast): > 100 µM | GI50 (SK-MEL-2 melanoma): 75.9 µM | TGI (SK-MEL-2 melanoma): > 100 µM | GI50 (A498 renal): 0.939 µM | TGI (A498 renal): 54.1 µM | GI50 (SF-268 CNS): 11 µM | TGI (SF-268 CNS): > 100 µM | GI50 (BT-549 breast): 12.1 µM | TGI (BT-549 breast): 27.8 µM | GI50 (NCI-H322M lung): > 100 µM | TGI (NCI-H322M lung): > 100 µM | GI50 (PC-3 prostate): 8.53 µM | TGI (PC-3 prostate): > 100 µM | GI50 (SNB-75 CNS): 30 µM | TGI (SNB-75 CNS): > 100 µM | GI50 (SW-620 colon): 0.951 µM | TGI (SW-620 colon): 55.8 µM | GI50 (KM12 colon): 20.8 µM | TGI (KM12 colon): > 100 µM | GI50 (NCI/ADR-RES ovarian): 20.2 µM | TGI (NCI/ADR-RES ovarian): > 100 µM | GI50 (MDA-MB-435 melanoma): 9.49 µM | TGI (MDA-MB-435 melanoma): > 100 µM | GI50 (HCT-15 colon): 4.11 µM | TGI (HCT-15 colon): 40.8 µM | GI50 (HS 578T breast): > 100 µM | TGI (HS 578T breast): > 100 µM | GI50 (OVCAR-8 ovarian): 6.15 µM | TGI (OVCAR-8 ovarian): > 100 µM | GI50 (DU-145 prostate): 7.47 µM | TGI (DU-145 prostate): 36 µM | GI50 (K-562 leukemia): 4.56 µM | TGI (K-562 leukemia): 21.5 µM | GI50 (UO-31 renal): 10.4 µM | TGI (UO-31 renal): 25.5 µM | GI50 (MDA-MB-468 breast): 2.33 µM | TGI (MDA-MB-468 breast): 7.94 µM | GI50 (HOP-92 NSCLC): 32.3 µM | TGI (HOP-92 NSCLC): > 100 µM | GI50 (HT29 colon): 3.78 µM | TGI (HT29 colon): > 100 µM | GI50 (MCF7 breast): 5.43 µM | TGI (MCF7 breast): > 100 µM | GI50 (HL-60(TB) leukemia): 0.523 µM | TGI (HL-60(TB) leukemia): 1.82 µM
